By pIC50 is commonly meant −log10 of the IC50, conventionally taken in molar units. High values mean a low IC50, low ones a high IC50.

The results in this text go back to ChEMBL document CHEMBL3638826, “Heterocyclic compounds as ERK inhibitors” (2015).

pIC50: −log10 of the molar value.

In the test the target is Mitogen-activated protein kinase 1 (Mus musculus, UniProt P63085). Nature of the test: IMAP Assay : Condition 1: Activated ERK2 activity was also determined in the IMAP assay format using the procedure outlined above. 1 μl of 25× compound was added to […] of kinase buffer containing 0.25 ng fully phosphorylated, active Mouse ERK2 protein. Following a 30 minute incubation, the reactions were initiated by addition of 10 μl of kinase buffer containing 1 μM ERK2 IMAP substrate peptide (0.9 μM unlabeled […]-CONH2 and 100 nM […](5-carboxyfluorescein)-CONH2) and 30 μM ATP. Reactions proceeded for 30 minutes before termination by addition of 60 μl IMAP detection beads in binding buffer. Plates were read as above after 30 minute binding equilibration. Active compounds were reconfirmed in an independent assay.
Chain of Mitogen-activated protein kinase 1 (P63085 whole entry): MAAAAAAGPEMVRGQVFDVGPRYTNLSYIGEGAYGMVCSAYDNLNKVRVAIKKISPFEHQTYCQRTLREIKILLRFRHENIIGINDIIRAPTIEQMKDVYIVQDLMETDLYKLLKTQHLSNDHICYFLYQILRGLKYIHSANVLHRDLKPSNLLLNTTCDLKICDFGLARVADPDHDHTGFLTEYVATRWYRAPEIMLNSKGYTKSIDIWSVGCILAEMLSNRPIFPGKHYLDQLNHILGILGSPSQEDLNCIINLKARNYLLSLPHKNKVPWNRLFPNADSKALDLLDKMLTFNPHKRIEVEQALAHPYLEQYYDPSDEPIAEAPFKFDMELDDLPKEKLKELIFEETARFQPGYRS

With `COc1cccc(F)c1CN1C[C@H](NC(=O)c2ccc3[nH]nc(-c4ccncc4)c3c2)CC[C@H]1C(=O)N1CCC(F)(F)CC1`, the pIC50 is 7.46.
